Here are results for 7 compounds from US20260242360A1, “Novel Compound, and Pharmaceutical Composition for Prevention or Treatment of Cancer or Tumors Comprising Same” (Daewoong Pharmaceutical Co., Ltd., priority 2023, published 2026).

In general, IC50 refers to the midpoint of a concentration-inhibition curve. Higher therefore signals weaker potency.

Common to all, as to assay type: cell-based
The subject of assay [1] is NCI-H226 cells. As to the kind of experiment: Cell growth inhibition test (CellTiter-Glo), NCI-H226. To be noted: Homo sapiens, NCI-H226 cell line. As for the experimental part: (§1) The cell growth for the compounds prepared in Examples was measured by CellTiter-Glo® Luminescednt Cell Viability (Promega, Catalog #G7571) method using NCI-H226 (addexbio), NCI-H28 (Korea Cell Line Bank) cell lines. This evaluation method is a method in which when luciferase enzyme is activated by ATP flowing out from living cells, it reacts with a luciferin substrate, and the enzyme activity at this time is measured to confirm cell viability.
(§2) Specifically, NCI-H226, and NCI-H28 cells were prepared in 100 μL of cell culture medium (RPMI medium, 10% FBS, 1% P/S, 4.5 g/L D-Glucose, 2.383 g/L HEPES Buffer, L-Glutamine, 1.5 g/L Sodium Bicarbonate, 110 mg/L Sodium pyruvate) in a white clear bottom 96-well microplate. The prepared plate was incubated in a 5% CO2 incubator at 37° C. for 24 hours, and then the previously prepared compounds of Examples were finally treated at concentrations of 0.0005, 0.005, 0.05, 0.5 and 5 μM, which was repeated three times for all treatment solutions.
(§3) The plates treated with the compounds of Examples were incubated in a 5% CO2 incubator at 37° C. 100 μL/well of the substrate aqueous solution containing luciferin was added to a white clear-bottom 96 well microplate, thereby initiating an enzyme reaction. The reaction was performed at room temperature in the dark for 10 minutes, and the luminescence was measured using a Flexstation3 multi-mode microplate reader. In accordance with the instructions for the CellTiter-Glo™ Luminescednt Cell Viability, the luciferase enzyme activity, which represents the amount of ATP, was measured by a chemiluminescence method, and the inhibitory activity of the compounds according to the present disclosure was calculated. The results of each compound were analyzed using Microsoft Excel, and the IC50 values were calculated using GraphPad Prism software.
Background: In ATP-based viability assays light output follows the ATP content of the culture.

Assay [2] has as its system NCI-H28 cells. Nature of the assay: Cell growth inhibition test (CellTiter-Glo), NCI-H28. To be noted: Homo sapiens, NCI-H28 cell line. As for the experimental part:
as §1, §2, §3

For assay [3], the system named is transcription factor TEAD. As to the kind of experiment: Activity inhibition test of transcription factor TEAD (ONE-Glo luciferase assay, Hippo Pathway TEAD reporter-MCF7 cell line). Conditions: Homo sapiens; TEAD Reporter-MCF7 cells, 24 hours treatment, luciferase luminescence. As for the experimental part:
The transcription factor TEAD activity of the compounds prepared in Examples was measured by the ONE-Glo™ Luciferase assay (Promega, Catalog #E6110) method using the Hippo Pathway TEAD reporter-MCF7 recombinant cell line (BPS Bioscience, Catalog #60618).
Specifically, the TEAD Reporter-MCF7 cell line contains the firefly luciferase gene whose expression is regulated under the control of TEAD response elements in the MCF7, which is a human breast cancer cell line. In the cell line, a non-phosphorylated YAP/TAZ exists in the nucleus in a non-stressed condition, which continuously induces expression of the luciferase reporter.
TEAD Reporter-MCF7 cells were prepared in 100 μL of cell culture medium (MEM medium, 10% FBS, 1% P/S, 400 μg/mL Geneticin, 1% […], 1 mM NA pyruvate, 10 μg/mL Insulin) in a white clear bottom 96-well microplate. The prepared plate was incubated in a 5% CO2 incubator at 37° C. for 24 hours, and then the previously prepared compounds of Examples were finally treated at concentrations of 0.0005, 0.005, 0.05, 0.5 and 5 μM, which were repeated three times for all treatment solutions. The plates treated with the compounds of Examples were incubated in a 5% CO2 incubator at 37° C. for 24 hours. 100 μL/well of the substrate aqueous solution containing luciferin was added to a white clear-bottom 96 well microplate, thereby initiating an enzyme reaction. The reaction was performed at room temperature for 5 minutes, and the luminescence (integration time 1000 ms) was measured using a Flexstation3 multi-mode microplate reader. In accordance with the instructions for the ONE-Glo™ Luciferase Assay, the luciferase enzyme activity, which represents the activity of the transcription factor TEAD, was measured by a chemiluminescence method, and the inhibitory activity of the compound according to the present disclosure was calculated. The results of each compound were analyzed using Microsoft Excel, and the IC50 values were calculated by GraphPad Prism software.

Turning to `C=CC(=O)Nc1cc(-c2cn(C)cn2)c2[nH]c(-c3cccc(F)c3)cc2c1` [Example 42, N-(2-(3-fluorophenyl)-7-(1-methyl-1H-imidazol-4-yl)-1H-indol-5-yl)acrylamide], the values for the IC50 in assay [1], in assay [2] and in assay [3] were 4.5 nM, 2080 nM and 97 nM, respectively.
For `Cn1cnc(-c2cc(C(=O)O)cc3cc(-c4ccc(F)c(F)c4)[nH]c23)c1` [Example 43, 2-(3,4-difluorophenyl)-7-(1-methyl-1H-imidazol-4-yl)-1H-indole-5-carboxylic acid], in that order: 7.8 nM, greater than 5000 nM and 54 nM.
The like results for `C=CC(=O)Nc1cc(-c2cn(C)cn2)c2[nH]c(-c3ccc(F)c(Cl)c3)cc2c1` [Example 44, N-(2-(3-chloro-4-fluorophenyl)-7-(1-methyl-1H-imidazol-4-yl)-1H-indol-5-yl)acrylamide] were, in that order, 21.7 nM, 1900 nM and 37 nM.
For `C=CC(=O)Nc1cc(-c2cn(C)cn2)c2[nH]c(-c3cc(F)c(Cl)c(F)c3)cc2c1` [Example 46, N-(2-(4-chloro-3,5-difluorophenyl)-7-(1-methyl-1H-imidazol-4-yl)-1H-indol-5-yl)acrylamide], in that order: 79 nM, 1360 nM and 90 nM.
As to `C=CC(=O)Nc1cc(-c2cn(CC)cn2)c2[nH]c(-c3cc(F)c(F)c(F)c3)cc2c1` [Example 50, N-(7-(1-ethyl-1H-imidazol-4-yl)-2-(3,4,5-trifluorophenyl)-1H-indol-5-yl)acrylamide], the IC50 in assay [1] is 15.4 nM; in assay [2], greater than 5000 nM; in assay [3], 27 nM.
For `C=CC(=O)Nc1cc(-c2cn(CC)cn2)c2[nH]c(-c3ccc(F)cc3)cc2c1` [Example 51, N-(7-(1-ethyl-1H-imidazol-4-yl)-2-(4-fluorophenyl)-1H-indol-5-yl)acrylamide], in that order: 7.6 nM, 2540 nM and 48 nM.
In the case of `C=CC(=O)Nc1cc(-c2cn(C)cn2)c2[nH]c(-c3ccc(Br)cc3)cc2c1` [Example 52, N-(2-(4-bromophenyl)-7-(1-methyl-1H-imidazol-4-yl)-1H-indole-5-yl)acrylamide], the half-inhibitory concentration (IC50) in assay [1] turned out to be 58 nM; in assay [2], 868 nM; in assay [3], 346 nM.
